In patent publication US20260137736A1, “PROBIOTIC LACTOBACILLUS STRAIN COMPOSITIONS AND APPLICATIONS THEREFOR INCLUDING FOR LEAKY GUT AND INFLAMMATION” (priority 2021, published 2026):

Assays:
L. reuteri growth [1] = details: EFSA guideline species cut-off for L. reuteri; cited from earlier work
L. reuteri growth [2] = assay: Antimicrobial susceptibility profiling, broth microdilution MIC against clinically relevant antibiotics (EFSA cut offs); type: cell-based; design: unit not given here; details: for Minimum inhibitory concentration (MIC), L. reuteri PTA-126787: strain L. reuteri PTA-126787, two biological replicates; for Minimum inhibitory concentration (MIC), L. reuteri PTA-126788: strain L. reuteri PTA-126788, two biological replicates
Procedure: Antimicrobial susceptibility testing was performed using broth microdilution method, using LSB medium (Mueller Hinton broth containing 5% horse blood) following Clinical and Laboratory Standards Institute (CLSI, 28th edition) guidelines. Two-fold dilutions of the clinically relevant antibiotics (Clindamycin, Chloramphenicol, Erythromycin, Gentamicin, Kanamycin, Streptomycin, Tetracycline and Ampicillin, all purchased from Sigma Aldrich) were prepared in LSB medium. Approximately, 50 μL of 1×10^5 CFUs/mL of the L. reuteri cells were added into each well. “No antibiotic” and “medium” alone controls were included. […], Pseudomonas aeruginosa ATCC 27853, Staphylococcus aureus ATCC 29213, Enterococcus faecalis ATCC 29212, Streptococcus pneumonia ATCC 49619 and Lacticaseibacillus paracasei ATCC 334 were used as quality control organisms. The plates were incubated for 24-48 hours under microaerophilic conditions. […] The strains were classified as susceptible or resistant using the microbiological cut offs established by EFSA (35).

Compound	EFSA microbiological cut off values for L. reuteri (L. reuteri growth [1])	Minimum inhibitory concentration (MIC), L. reuteri PTA-126787 (L. reuteri growth [2])	Minimum inhibitory concentration (MIC), L. reuteri PTA-126788 (L. reuteri growth [2])
[H]/N=C(/N)N[C@H]1[C@H](O)[C@@H](O)[C@H](O[C@@H]2O[C@@H](C)[C@](O)(C=O)[C@H]2O[C@@H]2O[C@@H](CO)[C@H](O)[C@@H](O)[C@@H]2NC)[C@@H](N/C(N)=N\[H])[C@@H]1O [Streptomycin]	64	8	8
NC[C@H]1O[C@H](O[C@H]2[C@H](O)[C@@H](O[C@H]3O[C@H](CO)[C@@H](O)[C@H](N)[C@H]3O)[C@H](N)C[C@@H]2N)[C@H](O)[C@@H](O)[C@@H]1O [Kanamycin]		16	16
CC1(C)S[C@@H]2[C@H](NC(=O)[C@H](N)c3ccccc3)C(=O)N2[C@H]1C(=O)O [Ampicillin]	2	1	1
Gentamicin	8	1	1
CCC[C@@H]1C[C@@H](C(=O)N[C@@H]([C@H]2O[C@H](SC)[C@H](O)[C@@H](O)[C@H]2O)[C@H](C)Cl)N(C)C1 [Clindamycin]		≥0.06	≥0.06
CN(C)[C@@H]1C(O)=C(C(N)=O)C(=O)[C@@]2(O)C(O)=C3C(=O)c4c(O)cccc4[C@@](C)(O)[C@H]3C[C@@H]12 [Tetracycline]		32/64	32/64
CC[C@H]1OC(=O)[C@H](C)[C@@H](O[C@H]2C[C@@](C)(OC)[C@@H](O)[C@H](C)O2)[C@H](C)[C@@H](O[C@@H]2O[C@H](C)C[C@H](N(C)C)[C@H]2O)[C@](C)(O)C[C@@H](C)C(=O)[C@H](C)[C@@H](O)[C@]1(C)O [Erythromycin]	1	0.12	0.12
O=C(N[C@H](CO)[C@H](O)c1ccc([N+](=O)[O-])cc1)C(Cl)Cl [Chloramphenicol]	4	2	2
